{"source": "patent US20100200049A1", "about": "“BIOHYBRID SYSTEM FOR HYDROGEN PRODUCTION” (Alliance for Sustainable Energy, LLC, priority 2008, published 2010)", "key": {"PS II [1]": {"biological_target": "T1, PS II (Thermosynechococcus vestitus, UniProt P0A444)", "T1 construct": "PS II complexes were isolated from Thermosynechococcus elongatus; from tissue; host or cells: Thermosynechococcus elongatus cells (photosynthetic membranes); method of Schatz and Witt 1984 with modifications", "assay": "Photocurrent of PGE-PS II electrode with soluble electron mediator", "format": "biochemical, Thermosynechococcus elongatus", "details": "DMBQ 60 μM vs no mediator; +0.4 V vs Ag/AgCl; red light 660 nm, 10 s light/40 s dark", "experimental": "(§1) PS II complexes were isolated from Thermosynechococcus elongatus according to methods described by Schatz and Witt (1984, Extraction and characterisation of oxygen-evolving Photosystem II complexes from a thermophilic cyanobacterium Synechococcus sp. Photobiochem. Photobiophys. 7: 1-14) with modifications.\n(§2) The PS II electrode was prepared by depositing 5 μl of 1 mM isolated PS II complex preparation onto the electrode in almost complete darkness, with a weak non-actinic green light present, and dried overnight at +4° C. in darkness. A pyrolytic graphite edge (PGE) electrode with a diameter of 4.8 mm or a glassy carbon (GC) electrode with a diameter of 3 mm was used. Directly before the experiment, the surface of the electrode containing dried PS II sample was covered with a dialysis membrane (12000-14000 MW cutoff) that was held in place by o-ring.\nA 50 mM stock solution of DMBQ in ethanol was prepared fresh before the experiment and used as an electron mediator for PS II in various concentrations. […]"}, "PS II [2]": {"biological_target": "T1, PS II", "assay": "Photocurrent of GC-PS II electrode wired to hydrogenase electrode, with DCMU added", "format": "biochemical, Thermosynechococcus elongatus", "details": "5 μM and 10 μM DCMU in working solution; red light 660 nm, 10 s light/40 s dark; all oxidizing potentials tested (+0.2 to +1.0 V)", "experimental": "as §1, §2\nThe photocurrent was generated by illumination of the PS II electrode by red LED (660 nm) or white LED. The following light/dark cycle was used: 10 s light, 40 s dark, unless specified otherwise.\nThe experiments in which the PS II electrode was tested by addition of DCMU were performed using the GC-PS II electrode, wired to a 4.8 mm diameter PGE-hydrogenase electrode. […]"}}, "data": [{"smiles": "CC1=CC(=O)C=C(C)C1=O", "note": "[DMBQ, 2,6-dimethyl 1,4-benzoquinone]", "values": [{"measurement": "effect on amplitude of photocurrent generated by the PS II electrode", "setting": "PS II [1]", "result": "dramatically improved the amplitude of photocurrent"}]}, {"smiles": "CN(C)C(=O)Nc1ccc(Cl)c(Cl)c1", "note": "[DCMU]", "values": [{"measurement": "effect on generation of photocurrent by the PS II electrode", "setting": "PS II [2]", "result": "inhibited the generation of photocurrent"}]}]}
